Data set [1] is described as follows: physchem.
Description: Determine the minimum amount (mL) of the solvent that can completely dissolve the berberrubine-related compound by changing the volume of the solvent, as appropriate. Calculate the solubility (g/mL) of each berberrubine-related compound in each solvent from the used berberrubine-related compound (1 g) and the minimum volume (mL) of the solvent.
By changing the volume of the solvent, as appropriate, the minimum amount (mL) of the solvent that can completely dissolve the berberrubine-related compound was determined. From the used berberrubine-related compound (1 g) and the minimum volume (mL) of the solvent, the solubility (g/mL) of each berberrubine-related compound in each solvent was determined.
The subject of data set [2] is C2C12 cells. The data set is described as follows: Oxygen consumption rate (OCR) of C2C12 cells, extracellular flux analyzer (basal respiration, ATP synthesis, maximal respiration). The class given is cell-based. As to conditions: 30 µM. The procedure:
A DMSO solution of 3.5 mg/mL of quinoid-type berberrubine was added to C2C12 cells in Dulbecco's modified Eagle (DMEM) medium containing 10% fetal bovine serum (FBS), penicillin, and streptomycin, such that the final concentration was 30 µM (FIG. 4A).
As a control, the same amount of water was added to the C2C12 cells described above.
During this period, the oxygen consumption rate (OCR) of the C2C12 cells was measured over time using an extracellular flux analyzer.
The OCR during the period between the addition of the ATP synthase inhibitor and the addition of the uncoupling agent, the OCR during the period between the addition of the uncoupling agent and the addition of the mitochondrial complex inhibitor, and the OCR in the period after the addition of the mitochondrial complex inhibitor each correlate with the amount of basal respiration, ATP synthesis, and maximal respiration in mitochondria. Thus, the amount of basal respiration, ATP synthesis, and maximal respiration in mitochondria were evaluated using OCR at the points of 30, 60, and 90 minutes as indicators.

The test system of data set [3] is mitochondrial respiratory chain supercomplexes. The data set is described as follows: Formation of mitochondrial respiratory chain supercomplexes, FRET between GFP-complex I and RFP-complex IV in C2C12 cells. The conditions noted are these: 3, 10, 30, or 60 µM; 24 hours after addition. The data set is classed as cell-based. The procedure: At the point of 24 hours after addition, formation of a mitochondrial respiratory chain supercomplex was detected by detecting FRET between GFP and RFP, resulting from the association of complex I and complex IV.

Data set [4] deals with Mouse fetal fibroblast (MEF) cells. The data set is described as follows: Tom20 immunofluorescence staining, content of mitochondria in MEF cells. The class given is cell-based. As to conditions: 30 µM, 48 hours after addition. The procedure:
(§1) 48 hours after addition, Tom20, which is a mitochondrial outer membrane protein, was detected by immunofluorescence staining. For the detection of Tom20, the anti-Tom20 antibody (Santa Cruz, sc-11415) was used.

The subject of data set [5] is PINK1-knockout MEF cells. The data set is described as follows: Tom20 immunofluorescence staining, content of mitochondria in PINK1-knockout MEF cells (Parkinson's disease model). The class given is cell-based, Mouse. The conditions noted are these: 30 µM, 48 hours after addition. The procedure:
as §1
Note that PINK1 is the gene responsible for Parkinson's disease, and PINK1 deficiency causes mitochondrial dysfunction associated with Parkinson's disease. Therefore, PINK1-knockout MEF cells are used as a model for patients affected by Parkinson's disease.

Data set [6] deals with HeLa cells. The data set is described as follows: Cancer cell growth, trypan blue cell count. The data set is classed as cell-based, human. As to conditions: 30 µM; 24, 48, and 72 hours after addition. The protocol: Cells were collected at 24, 48, and 72 hours after addition and stained with trypan blue, and the number of cells were measured. Note that the HeLa cells are cell lines derived from human uterus cancer cells and are widely used as model cells for cancer.

Data set [7] deals with tau proteins. The data set is described as follows: Western blotting of tau proteins in Neuro2A cells with aggregated tau. The data set is classed as cell-based. The conditions noted are these: 30 µM, 8 hours of culturing. The protocol: Neuro2A cells were introduced with ΔN-P301Ltau-CRY2olig by transfection. One day after introduction, nocodazole was added to stop the cell cycle, and subsequent blue light irradiation for 24 hours induced the aggregation of tau proteins in the cells.
After 8 hours of culturing after addition, the tau proteins in the cells were detected by means of Western blotting using an antibody against phosphorylated Tau at position S396 (pS396), an antibody against phosphorylated Tau at position S422 (pS422), an antibody against full length Tau (JM), and an antibody against the C-terminal region of Tau (tauC). The tau proteins were detected at around 100 kDa.

Data set [8] concerns mouse spermatozoa. The data set is described as follows: Sperm motility and MitoTracker staining after oral administration to mice. The class given is in vivo. The procedure: Male C57BL/6NJcl mice aged 9 to 10 weeks were orally administered 1.25% agar containing 0.35 mg/mL of quinoid-type berberrubine or 1.25% agar not containing quinoid-type berberrubine for 2 weeks. The oral administration was performed by placing a container containing this agar in a cage with the mice, such that the mice could constantly ingest this agar from the container (subsequent oral administration of agar to mice was performed in the same manner). At 20 weeks of age, the mice were anesthetized isoflurane (KANTO KAGAKU), euthanized by cervical dislocation, and had their testes and epididymis removed. The removed epididymis was cut into pieces with scissors in 1 mL of phosphate buffered saline (PBS) and then placed at room temperature for 1 hour, thereby preparing sperm samples. 20 µL of the sample was transferred to a glass bottom dish, and mitochondria and nuclei were stained by MitoTracker (manufactured by Thermo Fisher Scientific) and Hoechst (manufactured by NACALAI TESQUE, INC.), respectively.

For data set [9], the system named is mice irradiated with UV. The data set is described as follows: Skin of UV-irradiated mice, visual observation. The class given is in vivo. As to conditions: oral, 1.25% agar containing 0.35 mg/mL for 2 months; UV 3 times a week for 8 weeks. The protocol:
Male C57BL/6NJcl mice aged 8 weeks were orally administered 1.25% agar containing 0.35 mg/mL of quinoid-type berberrubine or 1.25% agar not containing quinoid-type berberrubine (control) for 2 months. The skin of the mice during the same period was irradiated with UV 3 times a week for 8 weeks. The irradiation dose was 1 mW/cm^2 for 70 seconds (70 mJ/cm^2) in the first week, 1 mW/cm^2 for 80 seconds (80 mJ/cm^2) in the second week, 1 mW/cm^2 for 90 seconds (90 mJ/cm^2) in the third week, and 1 mW/cm^2 for 100 seconds (100 mJ/cm^2) in the fourth week and thereafter. At the end of the same period, the skin of the mice was visually observed.

In data set [10] the test system is mouse visceral fat. The data set is described as follows: Accumulation of visceral fat in mice. The class given is in vivo. The conditions noted are these: male mice aged 50 weeks; oral, 1.25% agar containing 0.35 mg/mL for 2 months. The protocol:
Male C57BL/6NJcl mice aged 50 weeks were orally administered 1.25% agar containing 0.35 mg/mL of quinoid-type berberrubine or 1.25% agar not containing quinoid-type berberrubine (control) for 2 months. At the end of the period, accumulation of visceral fat in the mice was observed.

Data set [11] concerns brown fat cells. The data set is described as follows: TMRM/Hoechst fluorescence microscopy of primary cultured brown fat cells. The class given is cell-based, mice. As to conditions: 30 µM, 48 hours after addition. The procedure:
Brown fat cells removed from fetal C57BL/6NJcl mice were cut into pieces with scissors in an isolation buffer solution (0.123 M of sodium chloride, 5 mM of glucose, 5 mM of potassium chloride, 1.3 mM of calcium chloride, 100 mM of HEPES-NaOH (pH 7.4), 4% BSA) containing 1 mg/mL of collagenase, and warmed in a water bath at 37 °C for 30 minutes. After removal of aggregates using a cell strainer, the cells were collected by centrifugation at 1000 x g for 5 minutes and suspended in a DMEM medium containing 20% FBS, thereby preparing primary cultured cells of the brown fat cells.
Moreover, as a control, the same amount of DMSO as in the DMSO solution of quinoid-type berberrubine was added to the primary cultured cells.
The primary cultured cells cultured for 48 hours after addition had the nuclei stained with Hoechst (manufactured by NACALAI TESQUE, INC.) and mitochondria stained with tetramethylrhodamine methyl ester (TMRM, manufactured by Thermo Fisher Scientific) and then were observed under a fluorescence microscope (magnification: 60x).

Data set [12] has as its system C57BL/6N24 mice. The data set is described as follows: M-mode echocardiography in aged mice. The class given is in vivo. As to conditions: mice from 24 months of age, 12 weeks after start; adduct 0.5 mg/mL in drinking water; quinoid-type 0.5 mg/mL in diet. An excerpt:
The results of echocardiography using the M-mode echocardiography technique on the mice 12 weeks after the start of administration are shown in FIG. 16.
The results of echocardiography using the M-mode echocardiography technique on the mice 12 weeks after the start of administration are shown in FIG. 20.

Data set [13] relates to cardiac failure and myocardial fibrosis markers. The data set is described as follows: Quantitative RT-PCR of cardiac failure and myocardial fibrosis markers in aged mice. The data set is classed as in vivo. As to conditions: mice from 24 months of age, 12 weeks after start; adduct 0.5 mg/mL in drinking water; quinoid-type 0.5 mg/mL in diet. The source says:
Moreover, the results of quantifying cardiac failure and myocardial fibrosis markers in the mice 12 weeks after the start of administration by means of quantitative RT-PCR are shown in FIG. 18.
Moreover, the results of quantifying cardiac failure and myocardial fibrosis markers in the mice 12 weeks after the start of administration by means of quantitative RT-PCR are shown in FIG. 21.

Data set [14] relates to mitochondrial mRNA. The data set is described as follows: Quantitative RT-PCR of mitochondrial mRNA in aged mice. The conditions noted are these: mice from 24 months of age, 12 weeks after start; adduct 0.5 mg/mL in drinking water; quinoid-type 0.5 mg/mL in diet. The data set is classed as in vivo. The source says: Moreover, the results of quantifying the mRNA expression of mitochondria in the mice 12 weeks after the start of administration by means of quantitative RT-PCR are shown in FIG. 19.
Moreover, the results of quantifying the expression of Mitol which is mRNA of mitochondria in the mice 12 weeks after the start of administration by means of quantitative RT-PCR are shown in FIG. 22.

Data set [15] concerns mitochondria isolated from cardiomyocytes of mice. The data set is described as follows: OCR of mitochondria isolated from cardiomyocytes of treated mice, flux analyzer. The data set is classed as in vivo. As to conditions: 12 weeks after start; adduct 0.5 mg/mL in drinking water; quinoid-type 0.5 mg/mL in diet. An excerpt:
Moreover, mitochondria were isolated from cardiomyocytes of mice 12 weeks after the start of administration using a standard method. 23A and 23B.

The conditions of data set [16]: literature value; cited from earlier work.

Structures can show the parent of a compound that is named as a salt.

For orientation: solubility means the dissolved amount per volume that the medium holds. The low end stands for a poorly soluble substance, the high end for a readily soluble substance. As to `COc1ccc2cc3n(cc-2c1=O)CCc1cc2c(cc1-3)OCO2` [berberrubine acetate salt], the solubility at 0.5 h in [1] (methanol) is 34 mg/mL; in data set [1] (water), 30 mg/mL.

Take `COc1ccc2cc3n(cc-2c1=O)CCc1cc2c(cc1-3)OCO2` [quinoid-type berberrubine, 10-methoxy-5,6-dihydro-9H-[1,3]dioxolo[4,5-g]isoquinolino [3,2-a]isoquinolin-9-one]: the “basal respiration in mitochondria, enhancement compared to the controls” value in data set [2] (24 hours after addition, OCR at 30 minutes) is “about 4 fold”. For the same compound, the “ATP synthesis in mitochondria, enhancement compared to the controls” value in [2] (24 hours after addition, OCR at 60 minutes) was “about 4 fold”. Also, the “maximal respiration in mitochondria, enhancement compared to the controls” value in [2] (24 hours after addition, OCR at 90 minutes) is on record as “about 4 fold”. For the same compound, in data set [2] (C2C12 cells), the “ATP synthesis in mitochondria, compared to the addition of the berberrubine acetic acid adduct” value was “about 2.5 fold”; the “basal respiration in mitochondria, compared to the addition of the berberrubine acetic acid adduct” value is “about 2.5 fold”; the “maximal respiration in mitochondria, compared to the addition of the berberrubine acetic acid adduct” value is listed as “about 2.6 fold”. For the same compound, in data set [3], the “formation of mitochondrial respiratory chain supercomplexes (FRET between GFP and RFP)” value is on record as “promoted the formation of mitochondrial respiratory chain supercomplexes in a concentration-dependent manner”. Further, the “content of mitochondria in the cells compared to the control” value in [4] was “increased”. The “content of mitochondria in the cells” value in data set [5] is given as “increased”. Also, the “ratio of the number of HeLa cells after administration with respect to the number of HeLa cells in the control” value in data set [6] was “decreased over time”. Moreover, in data set [7], the “expression level of full-length Tau” value was “no significant changes”; the “ratio of the expression level of phosphorylated Tau at position S396 with respect to that of full-length Tau (pS396-tau/JM), reduction compared to the control” value was “about 35%”; the “ratio of the expression level of phosphorylated Tau at position S422 with respect to that of full-length Tau (pS422-tau/JM), reduction compared to the control” value is reported as “no significant changes”. Also, the “number of spermatozoa in which mitochondria were stained with MitoTracker, increase compared to the control” value in data set [8] (1.25% agar containing 0.35 mg/mL for 2 weeks) is given as “about twofold”. Further, in [8] (quinoid-type: 1.25% agar containing 0.35 mg/mL for 2 weeks, adduct: 2 mg/mL aqueous solution), the “sperm motility compared to the control” value is “more actively motile”. In data set [9], the “number of wrinkles compared to mice not administered” value is on record as “fewer”, the “skin darkening compared to mice not administered” value is “inhibited” and the “wrinkle depths compared to mice not administered” value is listed as “shallower”. In addition, the “visceral fat accumulation compared to mice not administered” value in data set [10] is on record as “inhibited”. For the same compound, in data set [11], the “increase in amount of active mitochondria having normal membrane potential, compared to the addition of a berberrubine acetic acid adduct” value is reported as “to a greater extent” and the “staining of mitochondria by TMRM (active mitochondria having normal membrane potential)” value was “strong staining”. In data set [12], the “% left ventricular fractional shortening (%FS) compared to the control” value was “increase”, the “left ventricular ejection fraction (LVEF) compared to the control” value is given as “increase”, the “left ventricular end-diastolic diameter (LVDd) compared to the control” value is “decrease” and the “left ventricular end-systolic diameter (LVDs) compared to the control” value is “decrease”. Also, the “left ventricular filling pressure (E/e') compared to the control” value in data set [12] was “decrease”. For the same compound, in data set [13], the “expression levels of cardiac failure markers (Nppa, Nppb, and Myh7) compared to the control” value was “reduced”; the “expression levels of myocardial fibrosis markers (Collagen1 and Ctgf) compared to the control” value is recorded as “reduced”. Also, the “expression of Mitol compared to the control” value in data set [14] was “increase”. In addition, in data set [15], the “oxygen consumption rate (OCR) in State 2 (ADP-limited state) compared to the control” value is given as “increased”, the “oxygen consumption rate (OCR) in State 3 (activated respiratory state) compared to the control” value was “increased”, the “oxygen consumption rate (OCR) in State 3u (uncoupled state) compared to the control” value is given as “increased” and the “oxygen consumption rate (OCR) in State 4o (oligomycin-induced state) compared to the control” value is “increased”. In addition, in data set [16], the “SOLUBILITY (g/mL) OF BERBERRUBINE-RELATED COMPOUND IN 1 mL OF SOLVENT, WATER” value is given as 0.000013 (LITERAT URE VALUE) g/mL.

(Values after patent EP4775579A1, “BERBERRUBINE-RELATED COMPOUND” (Mitogenic Co., Ltd., priority 2023, dated 2025).)
